This is an account of results in article PMC8396542, “Iterated Virtual Screening-Assisted Antiviral and Enzyme Inhibition Assays Reveal the Discovery of Novel Promising Anti-SARS-CoV-2 with Dual Activity” (International Journal of Molecular Sciences, 2021).

By IC50 is commonly meant the point on the concentration scale where inhibition reaches its midpoint.

Each structure is given as a SMILES string.

The target of assay [1] is T1, SARS-CoV-2 M^pro (3CL Protease, 3CL^pro) (Severe acute respiratory syndrome coronavirus 2, UniProt P0DTD1).
T1 construct: gene rep; untagged enzyme from BPS Bioscience kit; mature main protease nsp5 cut from replicase polyprotein 1ab (pp1a/pp1ab)
In words: biochemical.

In assay [2] the target is T2, human furin (Homo sapiens, UniProt P09958).
T2 construct: recombinant furin from BPS Bioscience furin protease assay kit
In words: fluorogenic protease assay. The assay is classed as biochemical.

Assay [3] concerns the target T3, human TMPRSS2 (Homo sapiens, UniProt O15393).
T3 construct: enzyme from BPS Bioscience TMPRSS2 fluorogenic assay kit
In words: fluorogenic protease assay. The assay is classed as biochemical.

T3 sequence (O15393 109-492 limits assumed): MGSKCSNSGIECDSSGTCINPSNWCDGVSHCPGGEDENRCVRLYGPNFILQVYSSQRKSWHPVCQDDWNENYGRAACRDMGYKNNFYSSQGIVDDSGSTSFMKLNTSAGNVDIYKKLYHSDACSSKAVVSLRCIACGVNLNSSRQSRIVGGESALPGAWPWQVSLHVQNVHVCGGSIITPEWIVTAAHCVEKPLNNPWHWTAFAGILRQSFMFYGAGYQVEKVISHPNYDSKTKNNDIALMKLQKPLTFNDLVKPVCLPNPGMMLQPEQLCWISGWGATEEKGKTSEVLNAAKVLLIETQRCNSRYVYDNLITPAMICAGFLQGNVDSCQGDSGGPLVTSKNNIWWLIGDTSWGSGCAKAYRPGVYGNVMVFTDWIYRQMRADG
T2 sequence (P09958 108-715): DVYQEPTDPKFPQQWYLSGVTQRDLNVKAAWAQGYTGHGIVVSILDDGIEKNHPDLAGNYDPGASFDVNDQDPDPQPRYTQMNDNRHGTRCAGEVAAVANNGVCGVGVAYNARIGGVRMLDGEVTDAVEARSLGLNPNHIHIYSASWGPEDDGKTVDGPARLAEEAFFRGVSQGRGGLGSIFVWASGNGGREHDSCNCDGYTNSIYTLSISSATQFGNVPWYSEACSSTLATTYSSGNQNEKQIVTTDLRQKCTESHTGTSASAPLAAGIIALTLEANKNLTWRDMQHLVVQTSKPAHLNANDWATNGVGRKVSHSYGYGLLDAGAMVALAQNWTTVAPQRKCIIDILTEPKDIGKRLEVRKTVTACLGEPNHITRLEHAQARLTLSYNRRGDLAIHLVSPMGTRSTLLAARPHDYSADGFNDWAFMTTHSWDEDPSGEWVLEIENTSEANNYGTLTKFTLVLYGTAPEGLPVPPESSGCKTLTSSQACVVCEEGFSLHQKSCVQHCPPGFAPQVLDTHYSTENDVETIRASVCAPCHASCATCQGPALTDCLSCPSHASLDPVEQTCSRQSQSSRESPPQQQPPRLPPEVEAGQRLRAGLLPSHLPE

As for `N=C(N/N=C/c1ccncc1)c1nonc1NCNc1nonc1C(=N)N/N=C/c1ccncc1` [M3], the half-maximal inhibitory concentration (IC50) in assay [1] was determined as 13 ± 3 nM; in assay [2], 90 ± 2 nM; in assay [3], 50 ± 2 nM.
